Laboratory results reported in patent US4643987A, “Modified glycopeptides” (Eli Lilly and Company, priority 1985, dated 1987).
≈ marks a conversion by molar mass, not a printed value.

Experiments:
[1] = tested on: Staphylococcus epidermidis 222; assay: agar-dilution MIC; type: cell-based
[2] = tested on: Streptococcus pyrogenes C203; assay: agar-dilution MIC; type: cell-based
[3] = tested on: Haemophilus influenzae C.L.; assay: agar-dilution MIC; type: cell-based
[4] = tested on: Staphylococcus epidermidis EP11; assay: agar-dilution MIC; type: cell-based
[5] = tested on: Staphylococcus aureus S13E; type: cell-based; conditions: agar dilution
[6] = tested on: Haemophilus influenzae 76; assay: agar-dilution MIC; type: cell-based
[7] = tested on: Staphylococcus aureus X400; assay: agar-dilution MIC; type: cell-based
[8] = tested on: Streptococcus sp. group D 2041; assay: agar-dilution MIC; type: cell-based
[9] = tested on: Streptococcus pneumoniae Park 1; type: cell-based; conditions: agar dilution
[10] = tested on: Staphylococcus aureus V41; assay: agar-dilution MIC; type: cell-based
[11] = tested on: Staphylococcus aureus NRRL B313; assay: agar-dilution MIC; type: cell-based
[12] = tested on: Streptococcus faecium ATCC 9790; assay: agar-dilution MIC; type: cell-based
Streptococcus pyogenes = assay: experimental bacterial infection in mice, ED50; type: in vivo; conditions: two doses, subcutaneously
Protocol: (§1) Some of the compounds of this invention have also shown in vivo antimicrobial activity against experimental bacterial infections. When two doses of test compound were administered to mice in experimental infections, the activity observed was measured as an ED50 value [effective dose in mg/kg to protect 50% of the test animals: see Warren Wick, et al., J. Bacteriol. 81, 233-235 (1961)].

Staphylococcus aureus = assay: experimental bacterial infection in mice, ED50; type: in vivo; conditions: two doses, subcutaneously
Protocol: as §1

Streptococcus pneumoniae = assay: experimental bacterial infection in mice, ED50; type: in vivo; conditions: two doses, subcutaneously
Protocol: as §1

| Molecule | MIC [1] | MIC [2] | MIC [3] | MIC [4] | MIC [5] | MIC [6] | MIC [7] | MIC [8] | MIC [9] | MIC [10] | MIC [11] | MIC [12] | ED50 (Streptococcus pyogenes) | ED50 (Staphylococcus aureus) | ED50 (Streptococcus pneumoniae) |
| --- | --- | --- | --- | --- | --- | --- | --- | --- | --- | --- | --- | --- | --- | --- | --- |
| N^leu --(4-methoxybenzoyl)vancomycin [Compound 5] | 4 µg/mL | 2 µg/mL | -- (-- = not active at 128 mcg/ml) | 16 µg/mL | 4 µg/mL | -- (-- = not active at 128 mcg/ml) | 4 µg/mL | 8 µg/mL | 2 µg/mL | 2 µg/mL | 2 µg/mL | 4 µg/mL |  |  |  |
| CCCCCCCCc1ccc(C(=O)N(C)C(CC(C)C)C(=O)NC2C(=O)NC(CC(N)=O)C(=O)NC3C(=O)NC4C(=O)NC(C(=O)NC(C(=O)O)c5cc(O)cc(O)c5-c5cc4ccc5O)C(O)c4ccc(c(Cl)c4)Oc4cc3cc(c4OC3OC(CO)C(O)C(O)C3OC3CC(C)(N)C(O)C(C)O3)Oc3ccc(cc3Cl)C2O)cc1 (stereo not drawn) [Compound 3, N^leu --[4-(n-octyl)benzoyl]vancomycin] | 2 µg/mL (≈ 1.2 µM) | 1 µg/mL (≈ 0.6 µM) | 128 µg/mL (≈ 76.8 µM) | 16 µg/mL (≈ 9.61 µM) | 2 µg/mL (≈ 1.2 µM) | 64 µg/mL (≈ 38.4 µM) | 2 µg/mL (≈ 1.2 µM) | 1 µg/mL (≈ 0.6 µM) | 1 µg/mL (≈ 0.6 µM) | 2 µg/mL (≈ 1.2 µM) | 2 µg/mL (≈ 1.2 µM) | 1 µg/mL (≈ 0.6 µM) |  |  |  |
| CCCCCCCCc1ccc(C(=O)N[C@@]2(C)C[C@H](O[C@H]3[C@H](Oc4c5cc6cc4Oc4ccc(cc4Cl)[C@@H](O)[C@@H](NC(=O)[C@@H](CC(C)C)NC)C(=O)N[C@@H](CC(N)=O)C(=O)N[C@H]6C(=O)N[C@H]4C(=O)N[C@H](C(=O)N[C@H](C(=O)O)c6cc(O)cc(O)c6-c6cc4ccc6O)[C@H](O)c4ccc(c(Cl)c4)O5)O[C@H](CO)[C@@H](O)[C@@H]3O)O[C@@H](C)[C@H]2O)cc1 [Compound 2, N^van --[4-(n-octyl)benzoyl]vancomycin] | 1 µg/mL (≈ 0.6 µM) | 0.25 µg/mL (≈ 0.15 µM) | -- (-- = not active at 128 mcg/ml) | 8 µg/mL (≈ 4.8 µM) | 0.5 µg/mL (≈ 0.3 µM) | -- (-- = not active at 128 mcg/ml) | 0.5 µg/mL (≈ 0.3 µM) | 0.125 µg/mL (≈ 0.075 µM) | 0.5 µg/mL (≈ 0.3 µM) | 0.5 µg/mL (≈ 0.3 µM) | 0.5 µg/mL (≈ 0.3 µM) | 0.125 µg/mL (≈ 0.075 µM) | 1.0 mg/kg/2 | 3.78 mg/kg/2 | 0.72 mg/kg/2 |
| CN[C@H](CC(C)C)C(=O)N[C@H]1C(=O)N[C@@H](CC(N)=O)C(=O)N[C@H]2C(=O)N[C@H]3C(=O)N[C@H](C(=O)N[C@H](C(=O)O)c4cc(O)cc(O)c4-c4cc3ccc4O)[C@H](O)c3ccc(c(Cl)c3)Oc3cc2cc(c3O[C@@H]2O[C@H](CO)[C@@H](O)[C@H](O)[C@H]2O[C@H]2C[C@](C)(NC(=O)CC(C)c3cccs3)[C@H](O)[C@H](C)O2)Oc2ccc(cc2Cl)[C@H]1O (stereo partly drawn) [Compound 7, N^van --[1-oxo-3-(2-thienyl)-n-butyl]vancomycin] | 2 µg/mL (≈ 1.25 µM) | 1 µg/mL (≈ 0.624 µM) | -- (-- = not active at 128 mcg/ml) | 8 µg/mL (≈ 5 µM) | 2 µg/mL (≈ 1.25 µM) | 128 µg/mL (≈ 79.9 µM) | 1 µg/mL (≈ 0.624 µM) | 4 µg/mL (≈ 2.5 µM) | 0.5 µg/mL (≈ 0.312 µM) | 1 µg/mL (≈ 0.624 µM) | 1 µg/mL (≈ 0.624 µM) | 2 µg/mL (≈ 1.25 µM) | 3.38 mg/kg/2 | 3.05 mg/kg/2 | 2.3 mg/kg/2 |
| CN[C@H](CC(C)C)C(=O)N[C@H]1C(=O)N[C@@H](CC(N)=O)C(=O)N[C@H]2C(=O)N[C@H]3C(=O)N[C@H](C(=O)N[C@H](C(=O)O)c4cc(O)cc(O)c4-c4cc3ccc4O)[C@H](O)c3ccc(c(Cl)c3)Oc3cc2cc(c3O[C@@H]2O[C@H](CO)[C@@H](O)[C@H](O)[C@H]2O[C@H]2C[C@](C)(N)[C@H](O)[C@H](C)O2)Oc2ccc(cc2Cl)[C@H]1O [vancomycin, Vancomycin, reference compound] |  |  |  |  |  |  |  |  |  |  |  |  | 0.99-1.1 mg/kg/2 | 1.8-3.7 mg/kg/2 | 0.90-0.93 mg/kg/2 |
| CCCCCCCCOc1ccc(C(=O)N[C@@]2(C)C[C@H](O[C@H]3[C@H](Oc4c5cc6cc4Oc4ccc(cc4Cl)[C@@H](O)[C@@H](NC(=O)[C@@H](CC(C)C)NC)C(=O)N[C@@H](CC(N)=O)C(=O)N[C@H]6C(=O)N[C@H]4C(=O)N[C@H](C(=O)N[C@H](C(=O)O)c6cc(O)cc(O)c6-c6cc4ccc6O)[C@H](O)c4ccc(c(Cl)c4)O5)O[C@H](CO)[C@@H](O)[C@@H]3O)O[C@@H](C)[C@H]2O)cc1 [Compound 1, N^van --[4-(n-octyloxy)benzoyl]vancomycin] | 4 µg/mL (≈ 2.38 µM) | 2 µg/mL (≈ 1.19 µM) | -- (-- = not active at 128 mcg/ml) | 16 µg/mL (≈ 9.51 µM) | 1 µg/mL (≈ 0.595 µM) | -- (-- = not active at 128 mcg/ml) | 2 µg/mL (≈ 1.19 µM) | 1 µg/mL (≈ 0.595 µM) | 2 µg/mL (≈ 1.19 µM) | 1 µg/mL (≈ 0.595 µM) | 1 µg/mL (≈ 0.595 µM) | 0.5 µg/mL (≈ 0.297 µM) |  |  |  |
| CN[C@H](CC(C)C)C(=O)N[C@H]1C(=O)N[C@@H](CC(N)=O)C(=O)N[C@H]2C(=O)N[C@H]3C(=O)N[C@H](C(=O)N[C@H](C(=O)O)c4cc(O)cc(O)c4-c4cc3ccc4O)[C@H](O)c3ccc(c(Cl)c3)Oc3cc2cc(c3O[C@@H]2O[C@H](CO)[C@@H](O)[C@H](O)[C@H]2O[C@H]2C[C@](C)(NC(=O)c3ccc(OC)cc3)[C@H](O)[C@H](C)O2)Oc2ccc(cc2Cl)[C@H]1O [Compound 4, N^van --(4-methoxybenzoyl)vancomycin] | 2 µg/mL (≈ 1.26 µM) | 1 µg/mL (≈ 0.632 µM) | 128 µg/mL (≈ 80.8 µM) | 8 µg/mL (≈ 5.05 µM) | 2 µg/mL (≈ 1.26 µM) | 128 µg/mL (≈ 80.8 µM) | 2 µg/mL (≈ 1.26 µM) | 8 µg/mL (≈ 5.05 µM) | 0.5 µg/mL (≈ 0.316 µM) | 2 µg/mL (≈ 1.26 µM) | 2 µg/mL (≈ 1.26 µM) | 2 µg/mL (≈ 1.26 µM) |  |  |  |
| CC(C)C[C@H](C(=O)N[C@H]1C(=O)N[C@@H](CC(N)=O)C(=O)N[C@H]2C(=O)N[C@H]3C(=O)N[C@H](C(=O)N[C@H](C(=O)O)c4cc(O)cc(O)c4-c4cc3ccc4O)[C@H](O)c3ccc(c(Cl)c3)Oc3cc2cc(c3O[C@@H]2O[C@H](CO)[C@@H](O)[C@H](O)[C@H]2O[C@H]2C[C@](C)(NC(=O)CSc3ccccc3)[C@H](O)[C@H](C)O2)Oc2ccc(cc2Cl)[C@H]1O)N(C)C(=O)CSc1ccccc1 [Compound 12, N^van,N^leu-di-[1-oxo-2-(phenylthio)ethyl]vancomycin] | 64 µg/mL (≈ 36.6 µM) | 8 µg/mL (≈ 4.57 µM) | -- (-- = not active at 128 mcg/ml) | 128 µg/mL (≈ 73.2 µM) | 32 µg/mL (≈ 18.3 µM) | -- (-- = not active at 128 mcg/ml) | 32 µg/mL (≈ 18.3 µM) | 64 µg/mL (≈ 36.6 µM) | 8 µg/mL (≈ 4.57 µM) | 16 µg/mL (≈ 9.14 µM) | 16 µg/mL (≈ 9.14 µM) | 32 µg/mL (≈ 18.3 µM) |  |  |  |
| CN[C@H](CC(C)C)C(=O)N[C@H]1C(=O)N[C@@H](CC(N)=O)C(=O)N[C@H]2C(=O)N[C@H]3C(=O)N[C@H](C(=O)N[C@H](C(=O)O)c4cc(O)cc(O)c4-c4cc3ccc4O)[C@H](O)c3ccc(c(Cl)c3)Oc3cc2cc(c3O[C@@H]2O[C@H](CO)[C@@H](O)[C@H](O)[C@H]2O[C@H]2C[C@](C)(NC(=O)CC(C)Oc3ccccc3)[C@H](O)[C@H](C)O2)Oc2ccc(cc2Cl)[C@H]1O (stereo partly drawn) [Compound 6, N^van --(1-oxo-3-phenoxy-n-butyl)vancomycin] | 2 µg/mL (≈ 1.24 µM) | 1 µg/mL (≈ 0.621 µM) | -- (-- = not active at 128 mcg/ml) | 8 µg/mL (≈ 4.96 µM) | 2 µg/mL (≈ 1.24 µM) | -- (-- = not active at 128 mcg/ml) | 2 µg/mL (≈ 1.24 µM) | 4 µg/mL (≈ 2.48 µM) | 1 µg/mL (≈ 0.621 µM) | 2 µg/mL (≈ 1.24 µM) | 1 µg/mL (≈ 0.621 µM) | 2 µg/mL (≈ 1.24 µM) | 3.2 mg/kg/2 | 3.7 mg/kg/2 | 1.8 mg/kg/2 |
| N^van -[1-oxo-2-(phenylthio)ethyl]vancomycin [Compound 10] | 2 µg/mL | 0.5 µg/mL | 128 µg/mL | 4 µg/mL | 1 µg/mL | 32 µg/mL | 1 µg/mL | 4 µg/mL | 0.5 µg/mL | 1 µg/mL | 1 µg/mL | 1 µg/mL | 4.45 mg/kg/2 | 2.3 mg/kg/2 | 1.9 mg/kg/2 |
| N^leu -[1-oxo-2-(phenylthio)ethyl]vancomycin [Compound 11] | 8 µg/mL | 4 µg/mL | -- (-- = not active at 128 mcg/ml) | 16 µg/mL | 4 µg/mL | -- (-- = not active at 128 mcg/ml) | 8 µg/mL | 16 µg/mL | 2 µg/mL | 4 µg/mL | 4 µg/mL | 8 µg/mL |  |  |  |
